Measurements taken from ChEMBL document CHEMBL4680258, “Synthesis, characterization and carbonic anhydrase I and II inhibitory evaluation of new sulfonamide derivatives bearing dithiocarbamate” (Eur J Med Chem, 2020).

What follows are compounds tested on NIH3T3 (assay: Cytotoxicity against mouse NIH/3T3 cells assessed as reduction in cell viability incubated for 24 hrs by MTT assay). Details: NIH3T3, 24 h.
Format: cell-based

Compound | IC50 [µM]
CN(C)CCN1CCN(C(=S)SCC(=O)Nc2ccc(S(N)(=O)=O)cc2)CC1 | > 1000
NS(=O)(=O)c1ccc(NC(=O)CSC(=S)N2CCN(c3ccccn3)CC2)cc1 | 18.5
CN(C)CCCN1CCN(C(=S)SCC(=O)Nc2ccc(S(N)(=O)=O)cc2)CC1 | > 1000
NS(=O)(=O)c1ccc(NC(=O)CSC(=S)N2CCN(c3ncccn3)CC2)cc1 | 16.5
Cc1ccc(CN2CCN(C(=S)SCC(=O)Nc3ccc(S(N)(=O)=O)cc3)CC2)cc1 | 58.1
CN1CCN(C(=S)SCC(=O)Nc2ccc(S(N)(=O)=O)cc2)CC1 | 14.5
